Where a SMILES comes first, the peptide text is derived from it. Bridges are numbered along the chain shown (N, C = ends). [ ]: non-standard residue; d: D form. ξ: configuration not given here. Trp(1-CH2COOH) = N[C@@H](Cc1cn(CC(=O)O)c2ccccc12)C(=O)O; Hyp = O=C(O)[C@@H]1C[C@@H](O)CN1; NMeNle = CCCC[C@H](NC)C(=O)O; NMeA = CN[C@@H](C)C(=O)O; Orn = NCCC[C@H](N)C(=O)O; Dab = NCC[C@H](N)C(=O)O; Dap = NC[C@H](N)C(=O)O; ξP = O=C(O)C1CCCN1

The record followed here is patent US10538555B2, “Macrocyclic inhibitors of the PD-1/PD-L1 and CD80(B7-1)/PD-L1 protein/protein interactions” (BRISTOL-MYERS SQUIBB COMPANY, priority 2014, dated 2020).

The target of this assay is T1, Human PD-L1/PD-1 (Homo sapiens, UniProt Q9NZQ7).
T1 construct: TVMV protease cleavage site (C); made in house; host or cells: HEK293T cells
T1 sequence (Q9NZQ7 with tags, fused parts or gaps): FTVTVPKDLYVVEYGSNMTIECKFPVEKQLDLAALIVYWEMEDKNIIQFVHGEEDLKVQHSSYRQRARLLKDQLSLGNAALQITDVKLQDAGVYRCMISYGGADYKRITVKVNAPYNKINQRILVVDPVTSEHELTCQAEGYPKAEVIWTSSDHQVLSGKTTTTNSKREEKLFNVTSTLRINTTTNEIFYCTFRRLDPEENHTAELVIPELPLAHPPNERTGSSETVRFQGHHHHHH
Description: HTRF Human PD-L1/PD-1 binding assay (PD-1-Ig/PD-L1-His). The settings on record: PD-L1-His 10 nM, PD-1-Ig 20 nM; class symbol; read-out: HTRF Human PD-L1/PD-1 Binding Assay IC50 Range. In a few lines:
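Truncated Fc-fused human PD-1 (aa 25-167) at 20 nM and His-tagged PD-L1 (aa 18-239) at 10 nM final are used, with peptides preincubated 15 min with PD-L1. Detection uses europium-cryptate anti-Ig and APC anti-His antibodies; 665/620 nm ratio.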

As to `CCCC[C@H]1C(=O)N(C)[C@@H](CCCC)C(=O)N[C@@H](CCCN)C(=O)N[C@H](C(=O)NCC(N)=O)CSCC(=O)N[C@@H](Cc2ccc(O)cc2)C(=O)N(C)[C@@H](C)C(=O)N[C@@H](CC(=O)O)C(=O)N2CCC[C@H]2C(=O)N[C@@H](Cc2cnc[nH]2)C(=O)N[C@@H](CCC(=O)O)C(=O)N2C[C@H](O)C[C@H]2C(=O)N[C@@H](Cc2c[nH]c3ccccc23)C(=O)N[C@@H](CO)C(=O)N[C@@H](Cc2cn(CC(=O)O)c3ccccc23)C(=O)N1C` [Example 6269] ({CH2CO}-Y[NMeA]DPHE[Hyp]WS[Trp(1-CH2COOH)][NMeNle][NMeNle][Orn]CG-NH2; thioether N-14), the IC50 lay in the range of 10 to 99.9 nM. `CCCC[C@H]1C(=O)N(C)[C@@H](CCCC)C(=O)N[C@@H](CC(C)C)C(=O)N[C@H](C(=O)NCC(N)=O)CSCC(=O)N[C@@H](Cc2ccc(O)cc2)C(=O)N(C)[C@@H](C)C(=O)N[C@@H](CC(N)=O)C(=O)N2CCC[C@H]2C(=O)N[C@@H](CN)C(=O)N[C@@H](CC(C)C)C(=O)N2CCC[C@H]2C(=O)N[C@@H](Cc2c[nH]c3ccccc23)C(=O)N[C@@H](CCN)C(=O)N[C@@H](Cc2ccc(O)cc2)C(=O)N1C` [Example 6272] ({CH2CO}-Y[NMeA]NP[Dap]LPW[Dab]Y[NMeNle][NMeNle]LCG-NH2; thioether N-14): the IC50 is 1 to 9.9 nM. Turning to `CCCC[C@H]1C(=O)N(C)[C@@H](CCCC)C(=O)N[C@@H](CO)C(=O)N[C@H](C(=O)NCC(N)=O)CSCC(=O)N[C@@H](Cc2ccc(O)cc2)C(=O)N(C)[C@@H](C)C(=O)N[C@@H](CC(=O)O)C(=O)N2CCC[C@H]2C(=O)N[C@@H](CO)C(=O)N[C@@H](CC(C)C)C(=O)N2C[C@H](O)C[C@H]2C(=O)N[C@@H](Cc2c[nH]c3ccccc23)C(=O)N[C@@H](CO)C(=O)N[C@@H](Cc2cn(CC(=O)O)c3ccccc23)C(=O)N1C` [Example 6274] ({CH2CO}-Y[NMeA]DPSL[Hyp]WS[Trp(1-CH2COOH)][NMeNle][NMeNle]SCG-NH2; thioether N-14), the IC50 lay in the range of 1 to 9.9 nM. Then `CCCC[C@H]1C(=O)N(C)[C@@H](CCCC)C(=O)N[C@@H](CC(C)C)C(=O)N[C@H](C(=O)NCC(N)=O)CSCC(=O)N[C@@H](Cc2ccc(O)cc2)C(=O)N(C)[C@@H](C)C(=O)N[C@@H](CC(=O)O)C(=O)N2CCC[C@H]2C(=O)N[C@@H](Cc2cnc[nH]2)C(=O)N[C@@H](CCC(=O)O)C(=O)N2C[C@H](O)C[C@H]2C(=O)N[C@@H](Cc2c[nH]c3ccccc23)C(=O)N[C@@H](CO)C(=O)N[C@@H](Cc2cn(CC(=O)O)c3ccccc23)C(=O)N1C` [Example 6276] ({CH2CO}-Y[NMeA]DPHE[Hyp]WS[Trp(1-CH2COOH)][NMeNle][NMeNle]LCG-NH2; thioether N-14), with 1 to 9.9 nM; and `CCCC[C@H]1C(=O)N(C)[C@@H](CCCC)C(=O)N[C@@H](CC(C)C)C(=O)N[C@H](C(=O)NCC(N)=O)CSCC(=O)N[C@@H](Cc2ccc(O)cc2)C(=O)N(C)[C@@H](C)C(=O)N[C@@H](CC(=O)O)C(=O)N2CCC[C@H]2C(=O)N[C@@H](CN)C(=O)N[C@@H](CC(C)C)C(=O)N2CCC[C@H]2C(=O)N[C@@H](Cc2c[nH]c3ccccc23)C(=O)N[C@@H](CCN)C(=O)N[C@@H](Cc2cn(CC(=O)O)c3ccccc23)C(=O)N1C` [Example 6283] ({CH2CO}-Y[NMeA]DP[Dap]LPW[Dab][Trp(1-CH2COOH)][NMeNle][NMeNle]LCG-NH2; thioether N-14), with 1 to 9.9 nM; and `CCCC[C@H]1C(=O)N(C)[C@@H](CCCC)C(=O)N[C@@H](CCC(=O)O)C(=O)N[C@H](C(=O)NCC(N)=O)CSCC(=O)N[C@@H](Cc2ccc(O)cc2)C(=O)N(C)[C@@H](C)C(=O)N[C@@H](CC(N)=O)C(=O)N2CCCC2C(=O)N[C@@H](Cc2cnc[nH]2)C(=O)N[C@@H](CCC(N)=O)C(=O)N2C[C@H](O)C[C@H]2C(=O)N[C@@H](Cc2c[nH]c3ccccc23)C(=O)N[C@@H](CCN)C(=O)N[C@@H](Cc2cn(CC(=O)O)c3ccccc23)C(=O)N1C` (some centres unmarked) [Example 6288] ({CH2CO}-Y[NMeA]N[ξP]HQ[Hyp]W[Dab][Trp(1-CH2COOH)][NMeNle][NMeNle]ECG-NH2; thioether N-14), with 1 to 9.9 nM. With `CCCC[C@H]1C(=O)N(C)[C@@H](CCCC)C(=O)N[C@@H](CCC(=O)O)C(=O)N[C@H](C(=O)NCC(N)=O)CSCC(=O)N[C@@H](Cc2ccc(O)cc2)C(=O)N(C)[C@@H](C)C(=O)N[C@@H](CC(=O)O)C(=O)N2CCC[C@H]2C(=O)N[C@@H](CN)C(=O)N[C@@H](CCC(N)=O)C(=O)N2C[C@H](O)C[C@H]2C(=O)N[C@@H](Cc2c[nH]c3ccccc23)C(=O)N[C@@H](CO)C(=O)N[C@@H](Cc2cn(CC(=O)O)c3ccccc23)C(=O)N1C` [Example 6289] ({CH2CO}-Y[NMeA]DP[Dap]Q[Hyp]WS[Trp(1-CH2COOH)][NMeNle][NMeNle]ECG-NH2; thioether N-14) the figure was 1 to 9.9 nM; with `CCCC[C@H]1C(=O)N(C)[C@@H](CCCC)C(=O)N[C@@H](CCN)C(=O)N[C@H](C(=O)NCC(N)=O)CSCC(=O)N[C@@H](Cc2ccc(O)cc2)C(=O)N(C)[C@@H](C)C(=O)N[C@@H](CC(N)=O)C(=O)N2CCC[C@H]2C(=O)N[C@@H](Cc2cnc[nH]2)C(=O)N[C@@H](CCC(N)=O)C(=O)N2C[C@H](O)C[C@H]2C(=O)N[C@@H](Cc2c[nH]c3ccccc23)C(=O)N[C@@H](CCN)C(=O)N[C@@H](Cc2cn(CC(=O)O)c3ccccc23)C(=O)N1C` [Example 6293] ({CH2CO}-Y[NMeA]NPHQ[Hyp]W[Dab][Trp(1-CH2COOH)][NMeNle][NMeNle][Dab]CG-NH2; thioether N-14), 1 to 9.9 nM.

As to `CCCC[C@H]1C(=O)N(C)[C@@H](CCCC)C(=O)N[C@@H](CC(C)C)C(=O)N[C@H](C(=O)NCC(N)=O)CSCC(=O)N[C@@H](Cc2ccc(O)cc2)C(=O)N(C)[C@@H](C)C(=O)N[C@@H](CC(N)=O)C(=O)N2CCC[C@H]2C(=O)N[C@@H](CN)C(=O)N[C@@H](CC(C)C)C(=O)N2C[C@H](O)C[C@H]2C(=O)N[C@@H](Cc2c[nH]c3ccccc23)C(=O)N[C@@H](CCCCN)C(=O)N[C@@H](Cc2cn(CC(=O)O)c3ccccc23)C(=O)N1C` [Example 6296] ({CH2CO}-Y[NMeA]NP[Dap]L[Hyp]WK[Trp(1-CH2COOH)][NMeNle][NMeNle]LCG-NH2; thioether N-14), the IC50 lay within 1 to 9.9 nM. Regarding `CCCC[C@H]1C(=O)N(C)[C@@H](CCCC)C(=O)N[C@@H](CCCCN)C(=O)N[C@H](C(=O)NCC(N)=O)CSCC(=O)N[C@@H](Cc2ccc(O)cc2)C(=O)N(C)[C@@H](C)C(=O)N[C@@H](CC(N)=O)C(=O)N2CCC[C@H]2C(=O)N[C@@H](Cc2cnc[nH]2)C(=O)N[C@@H](CCC(=O)O)C(=O)N2C[C@H](O)C[C@H]2C(=O)N[C@@H](Cc2c[nH]c3ccccc23)C(=O)N[C@@H](CO)C(=O)N[C@@H](Cc2cn(CC(=O)O)c3ccccc23)C(=O)N1C` [Example 6297] ({CH2CO}-Y[NMeA]NPHE[Hyp]WS[Trp(1-CH2COOH)][NMeNle][NMeNle]KCG-NH2; thioether N-14), the IC50 was in the range of 1 to 9.9 nM. Then `CCCC[C@H]1C(=O)N(C)[C@@H](CCCC)C(=O)N[C@@H](CN)C(=O)N[C@H](C(=O)NCC(N)=O)CSCC(=O)N[C@@H](Cc2ccc(O)cc2)C(=O)N(C)[C@@H](C)C(=O)N[C@@H](CC(N)=O)C(=O)N2CCC[C@H]2C(=O)N[C@@H](CN)C(=O)N[C@@H](CCC(=O)O)C(=O)N2C[C@H](O)C[C@H]2C(=O)N[C@@H](Cc2c[nH]c3ccccc23)C(=O)N[C@@H](CCN)C(=O)N[C@@H](Cc2cn(CC(=O)O)c3ccccc23)C(=O)N1C` [Example 6301] ({CH2CO}-Y[NMeA]NP[Dap]E[Hyp]W[Dab][Trp(1-CH2COOH)][NMeNle][NMeNle][Dap]CG-NH2; thioether N-14), with 1 to 9.9 nM. Then `CCCC[C@H]1C(=O)N(C)[C@@H](CCCC)C(=O)N[C@@H](CN)C(=O)N[C@H](C(=O)NCC(N)=O)CSCC(=O)N[C@@H](Cc2ccc(O)cc2)C(=O)N(C)[C@@H](C)C(=O)N[C@@H](CC(N)=O)C(=O)N2CCC[C@H]2C(=O)N[C@@H](CN)C(=O)N[C@@H](CC(C)C)C(=O)N2C[C@H](O)C[C@H]2C(=O)N[C@@H](Cc2c[nH]c3ccccc23)C(=O)N[C@@H](CCN)C(=O)N[C@@H](Cc2cn(CC(=O)O)c3ccccc23)C(=O)N1C` [Example 6303] ({CH2CO}-Y[NMeA]NP[Dap]L[Hyp]W[Dab][Trp(1-CH2COOH)][NMeNle][NMeNle][Dap]CG-NH2; thioether N-14), with 1 to 9.9 nM; and `CCCC[C@H]1C(=O)N(C)[C@@H](CCCC)C(=O)N[C@@H](CC(C)C)C(=O)N[C@H](C(N)=O)CSCC(=O)N[C@@H](Cc2ccc(O)cc2)C(=O)N(C)[C@@H](C)C(=O)N[C@@H](CC(N)=O)C(=O)N2CCC[C@H]2C(=O)N[C@@H](CN)C(=O)N[C@@H](CC(C)C)C(=O)N2C[C@H](O)C[C@H]2C(=O)N[C@@H](Cc2c[nH]c3ccccc23)C(=O)N[C@@H](CCN)C(=O)N[C@@H](Cc2cn(CC(=O)O)c3ccccc23)C(=O)N1C` [Example 6310] ({CH2CO}-Y[NMeA]NP[Dap]L[Hyp]W[Dab][Trp(1-CH2COOH)][NMeNle][NMeNle]LC-NH2; thioether N-14), with 10 to 99.9 nM; and `CCCC[C@H]1C(=O)N(C)[C@@H](CCCC)C(=O)N[C@@H](CCC(=O)O)C(=O)N[C@H](C(=O)NCC(N)=O)CSCC(=O)N[C@@H](Cc2ccc(O)cc2)C(=O)N(C)[C@@H](C)C(=O)N[C@@H](CC(N)=O)C(=O)N2CCC[C@H]2C(=O)N[C@@H](Cc2cnc[nH]2)C(=O)N[C@@H](CCC(N)=O)C(=O)N2C[C@H](O)C[C@H]2C(=O)N[C@@H](Cc2c[nH]c3ccccc23)C(=O)N[C@@H](CCCCN)C(=O)N[C@@H](Cc2cn(CC(=O)O)c3ccccc23)C(=O)N1C` [Example 6324] ({CH2CO}-Y[NMeA]NPHQ[Hyp]WK[Trp(1-CH2COOH)][NMeNle][NMeNle]ECG-NH2; thioether N-14), with 1 to 9.9 nM.
